Assay results taken from ChEMBL document CHEMBL2417387, “Development of a pharmacophore model for the catecholamine release-inhibitory peptide catestatin: virtual screening and functional testing identify novel small molecule therapeutics of hypertension” (Bioorg Med Chem, 2013).
The source made the active and inactive calls. The calls are words filed in the database; no cut-off is given here.

What was measured:
[1] = Inhibition of nicotinic cholinergic receptor in rat PC12 cells assessed as inhibition of nicotine-stimulated [3H]-norepinephrine release after 30 mins by liquid scintillation counting analysis; assay type: cell-based; conditions: PC-12
[2] = system: PC-12; experiment: Inhibition of nicotinic cholinergic receptor-mediated [3H]-norepinephrine release in rat PC12 cells after 30 mins by liquid scintillation counting analysis; assay type: cell-based
[3] = system: PC-12; experiment: Inhibition of ionomycin-mediated catecholamine secretion in rat PC12 cells at 5 uM after 30 mins by liquid scintillation counting analysis; assay type: functional, cell-based
[4] = system: PC-12; experiment: Inhibition of ATP-induced P2X receptor activation in rat PC12 cells assessed as inhibition of catecholamine secretion at 5 uM after 30 mins by liquid scintillation counting analysis; assay type: cell-based
[5] = system: PC-12; experiment: Cytotoxicity against rat PC12 cells assessed as cell viability at 5 to 10 uM after 24 hrs by trypan blue exclusion assay relative to control; assay type: cell-based; conditions: pc-12, 24 h
[6] = system: PC-12; experiment: Noncompetitive inhibition of nicotinic cholinergic receptor in rat PC12 cells assessed as inhibition of 100 to 1000 uM nicotine-induced [3H]-norepinephrine release at 5 uM after 30 mins by liquid scintillation counting analysis; assay type: cell-based
[7] = system: PC-12; experiment: Inhibition of BaCl2-induced potassium channel blockade in rat PC12 cells assessed as inhibition of catecholamine secretion at 5 uM after 30 mins by liquid scintillation counting analysis; assay type: functional, cell-based
[8] = system: PC-12; experiment: Inhibition of KCl-induced membrane depolarization in rat PC12 cells assessed as inhibition of catecholamine secretion at 5 uM after 30 mins by liquid scintillation counting analysis; assay type: functional, cell-based
[9] = (§1) Inhibition of nicotinic cholinergic receptor in rat PC12 cells assessed as inhibition of nicotine-stimulated 45Ca2+ uptake after 2 mins by liquid scintillation counting analysis; assay type: cell-based; conditions: PC-12, 2 min
[10] = system: PC-12; experiment: as §1; assay type: cell-based
[11] = system: Mus musculus; experiment: Antihypertensive activity in BPH/2J mouse polygenic hypertensive model assessed as reduction in systolic blood pressure at 5 ug/g, ip up to 60 mins by telemetry; assay type: functional, Artery
[12] = system: Mus musculus; experiment: Antihypertensive activity in BPH/2J mouse polygenic hypertensive model assessed as reduction in diastolic blood pressure at 5 ug/g, ip up to 60 mins by telemetry; assay type: functional, Artery
[13] = system: Mus musculus; experiment: Toxicity in BPH/2J mouse polygenic hypertensive model assessed as reflex tachycardia at 5 ug/g, ip measured for 24 hrs by telemetry; assay type: organism-based; conditions: in vivo
[14] = system: Mus musculus; experiment: Antihypertensive activity in BPH/2J mouse polygenic hypertensive model assessed as reduction in heart rate at 5 ug/g, ip measured for 24 hrs by telemetry; assay type: functional

In the case of `CCN1CCC(CNc2cc(C)nc(NC(=N)Nc3cc(Cl)cc(Cl)c3)n2)C1` (configuration not stated), the IC50 [1] is reported as 1900 nM.

For `CNC(=O)c1cc(NC(=O)Nc2cccc(C3=NCCN3)c2)cc(NC(=O)Nc2cccc(C3=NCCN3)c2)c1`, the inhibition [2] was “inactive”, the inhibition [3] was “inactive” and the inhibition [4] was “inactive”. For the same compound, the Activity [5] was “Non-toxic”, the inhibition [6] was “Active” and the inhibition [7] was “inactive”. The IC50 [1] was 1000 nM, the inhibition [8] was “inactive” and the IC50 [9] was 100 nM. For the same compound, the inhibition [10] was “Dose-dependent effect”.

For `C/N=C(\NC)c1ccc(NC(=O)Nc2ccc(C)c(NC(=O)Nc3ccc(/C(=N/C)NC)cc3)c2)cc1`, the IC50 [1] was 24 nM, the IC50 [9] was 100 nM and the inhibition [10] was “Dose-dependent effect”.

With `CCN1CCC(CNc2cc(C)nc(NC(=N)Nc3ccc(Cl)c(Cl)c3)n2)C1` (configuration not stated) the IC50 [1] was 450 nM.

`Cc1cc(NC(=O)NCc2ccc(N3C(N)=NC(N)=NC3(C)C)cc2)ccc1S(=O)(=O)F` gave an IC50 [1] of 870 nM.

Work on `Cc1ccnc(NS(=O)(=O)c2ccc(/N=N/c3cc(/N=N/c4ccccc4)c(N)nc3N)cc2)n1` yielded an IC50 [1] of over 5000 nM.

Compound `CC1(C)N=C(N)N=C(N)N1c1ccc(CNC(=O)Nc2ccccc2)cc1` has an IC50 [1] of over 5000 nM.

With `C[N+](C)(C)CC[N+]1(C)Cc2c(Cl)c(Cl)c(Cl)c(Cl)c2C1` the inhibition [6] was “Active”.

`CCN/C(=N\c1cccc(C2=NCCN2)c1)c1ccc(/C(=N/c2cccc(C3=NCCN3)c2)NCC)cc1` showed an IC50 [1] of 1600 nM.

With `C/C(=N\NC(=N)N)c1cccc(NC(=S)Nc2cccc(/C(C)=N/NC(=N)N)c2)c1` the Activity [11] was 33 mmHg, the Activity [12] was 25 mmHg and the Activity [13] was “Non-toxic”. The IC50 [1] was 17 nM, the Activity [14] was 180 bpm and the IC50 [9] was 90 nM. For the same compound, the inhibition [10] was “Dose-dependent effect”.

`O=C(Nc1cc(C2=NCCN2)cc(C2=NCCN2)c1)Nc1cc(C2=NCCN2)cc(C2=NCCN2)c1` showed an IC50 [1] of over 5000 nM.

`Nc1ccc(CCCCc2nc(N)nc(N)c2-c2ccc(Cl)c(Cl)c2)cc1` showed an IC50 [1] of 2600 nM.

With `CCN1CCCC(Nc2cc(C)nc(NC(=N)Nc3ccc(Cl)c(Cl)c3)n2)C1` (configuration not stated) the IC50 [1] was 1100 nM.

`C/N=C(\NC)c1ccc(/N=C(\NC)c2ccc(/C(=N/c3ccc(/C(=N/C)NC)cc3)NC)cc2)cc1` gave an IC50 [1] of 1700 nM.

With `Nc1nc(N)c(-c2ccc(Cl)cc2)c(CCc2ccc(NC(=O)CBr)cc2)n1` the IC50 [1] was 1500 nM.

`C/N=C(\N)c1ccc(/N=C(\N)c2ccc(Cl)c(/C(N)=N/c3ccc(C(=N)NC)cc3)c2)cc1` gave an IC50 [1] of 1800 nM.

In the case of `Nc1nc(N)c(/N=N/c2ccc(S(=O)(=O)Nc3ccccn3)cc2)cc1/N=N/c1ccccc1`, the IC50 [1] is reported as 2000 nM.

For `Nc1nc(N)c2nc(CNc3ccc(C(=O)N[C@@H](CCC(=O)O)C(=O)O)cc3)cnc2n1` [AMINOPTERIN], the IC50 [1] was over 5000 nM.

With `CCN(CC)CC(O)CNC1=N/C(=N/C(=N)Nc2ccc(Cl)c(Cl)c2)N=C(C)C1` (configuration not stated) the inhibition [2] was “inactive”, the inhibition [3] was “inactive” and the inhibition [4] was “inactive”. The Activity [5] was “Non-toxic”, the inhibition [6] was “Active” and the inhibition [7] was “inactive”. The IC50 [1] was 680 nM and the inhibition [8] was “inactive”.

In the case of `C/N=C(\NC)c1ccc(NC(=O)Nc2cccc(NC(=O)Nc3ccc(/C(=N/C)NC)cc3)c2)cc1`, the IC50 [1] is reported as 41 nM, the IC50 [9] is reported as 70 nM and the inhibition [10] is reported as “Dose-dependent effect”.

`CNC(=O)c1ccc(NC(=O)Nc2cccc(C3=NCCN3)c2)cc1NC(=O)Nc1cccc(C2=NCCN2)c1` gave an IC50 [1] of 1400 nM.
